Laboratory results from the Deep4Chem optical property database.
One block for each compound: values may come before it.

Experiment: solvent given as SMILES

fluorescence lifetime (in ClCCl): 1.2 ns
SMILES: c1ccc(N(c2ccccc2)c2ccc(-c3ccc4c(c3)C3(c5ccccc5Sc5ccccc53)c3cc(-c5ccc(N(c6ccccc6)c6ccccc6)cc5)ccc3-4)cc2)cc1

fluorescence lifetime (in ClCCl): 2.98 ns
SMILES: c1ccn(-c2ccc(-c3cc(-c4ccc(-n5cccc5)cc4)cc(-c4ccc(-n5cccc5)cc4)c3)cc2)c1

fluorescence lifetime (in O): 5.7 ns
SMILES: NNC(=O)N1C(=O)c2cc(S(=O)(=O)[O-])cc3c(N)c(S(=O)(=O)[O-])cc(c23)C1=O

fluorescence lifetime (in ClCCl): 3.28 ns
SMILES: CC(C)(C)NC(=O)c1cc2ccccc2c2ccc3c4ccccc4c4ccccc4c3c12

fluorescence lifetime (in ClCCl): 1.17 ns
SMILES: C(=C\c1cc(-c2ccc3ccccc3c2)c(/C=C/c2ccc(N(c3ccccc3)c3ccccc3)cc2)cc1-c1ccc2ccccc2c1)/c1ccc(N(c2ccccc2)c2ccccc2)cc1

fluorescence lifetime (in CC#N): 0.0089 ns
SMILES: Oc1ccccc1/C=N/c1ccccc1/N=C/c1ccccc1O

fluorescence lifetime (in CCCCCC): 5.54 ns | fluorescence lifetime (in CCCCCCCCO): 4.91 ns | fluorescence lifetime (in CCOC(C)=O): 5.21 ns | fluorescence lifetime (in CN(C)C=O): 4.8 ns
SMILES: CC1=CC(C)=[N+]2C1=Cc1c3ccccc3c(C#Cc3ccsc3)n1[B-]2(F)F

fluorescence lifetime (in CC#N): 111 ns
SMILES: O=CC12N=N[C@](C=O)(C3C4CCC(C4)C31)C1[C@@H]3CC[C@@H](C3)[C@H]12 (some centres undefined)

fluorescence lifetime (in C1CCCCC1): 4.21 ns | fluorescence lifetime (in CCOC(C)=O): 4.41 ns | fluorescence lifetime (in CO): 4.44 ns
SMILES: Cc1ccccc1C1=C2C=c3c(oc4ccccc34)=[N+]2[B-](F)(F)n2c1cc1c3ccccc3oc12

fluorescence lifetime (in ClCCl): 0.9 ns
SMILES: O=S1(=O)c2ccccc2C2(c3cc(-c4ccc(-n5c6ccccc6c6ccccc65)cc4)ccc3-c3ccc(-c4ccc(-n5c6ccccc6c6ccccc65)cc4)cc32)c2ccccc21

fluorescence lifetime (in ClC(Cl)Cl): 5 ns
SMILES: CCCCCCCCCCCCOc1cc2c3c(ccc4c5c(OC6CCC(C(C)(C)C)CC6)cc6c7c(ccc(c1c34)c75)C(=O)N(C1CCCCC1)C6=O)C(=O)N(C1CCCCC1)C2=O (centres undefined)

fluorescence lifetime (in ClCCl): 1.87 ns
SMILES: c1ccc2c(-n3c(-c4ccc(-c5ccc(-c6nc7c8ccccc8c8ccccc8c7n6-c6cccc7ccccc67)c6ccccc56)c5ccccc45)nc4c5ccccc5c5ccccc5c43)cccc2c1

fluorescence lifetime (in ClC(Cl)Cl): 2.6 ns
SMILES: CN(C)c1ccc(C2=Cc3c4ccccc4c4ccccc4[n+]3[B-](F)(F)O2)cc1

fluorescence lifetime (in C1CCOC1): 3.89 ns
SMILES: F[B-]1(F)n2c(/C=C/c3ccc(C(=C(c4ccccc4)c4ccccc4)c4ccccc4)cc3)ccc2C(c2ccc(C(=C(c3ccccc3)c3ccccc3)c3ccccc3)cc2)=C2C=CC(/C=C/c3ccc(C(=C(c4ccccc4)c4ccccc4)c4ccccc4)cc3)=[N+]21

fluorescence lifetime (in ClCCl): 7.8 ns
SMILES: N#CC1=c2c3cccc4c(Br)ccc(c43)n2[B-](F)(F)[n+]2ccccc21

fluorescence lifetime (in CCO): 1.8 ns | fluorescence lifetime (in ClCCl): 4 ns
SMILES: CCN(CC)c1ccc2cc(C#N)/c(=N\C(C)=O)oc2c1

fluorescence lifetime (in C1CCOC1): 2.06 ns
SMILES: CN(C)c1ccc(C2=Nc3scc(-c4ccccc4)[n+]3[B-](F)(F)O2)cc1

fluorescence lifetime (in CC#N): 0.55 ns
SMILES: c1cc2c3c(cccc3c1)C(N1CCOCCOCCOCCOCC1)=N2

fluorescence lifetime (in ClC(Cl)Cl): 1.23 ns
SMILES: Cc1ccc(C#Cc2ccc(C#Cc3ccc(C#Cc4ccccc4C#N)cc3C#N)cc2C#N)cc1

fluorescence lifetime (in C1CCOC1): 4.2 ns
SMILES: CCC1(CC)c2ccccc2-c2c1c1c(c3c2C(CC)(CC)c2cc(B(c4c(C)cc(C)cc4C)c4c(C)cc(C)cc4C)ccc2-3)C(CC)(CC)c2cc(B(c3c(C)cc(C)cc3C)c3c(C)cc(C)cc3C)ccc2-1

fluorescence lifetime (in C1CCCCC1): 2.7 ns | fluorescence lifetime (in C1CCOC1): 4.91 ns | fluorescence lifetime (in C1COCCO1): 2.38 ns | fluorescence lifetime (in CC#N): 0.558 ns | fluorescence lifetime (in CCOC(C)=O): 2.46 ns | fluorescence lifetime (in CN(C)C=O): 2.22 ns
SMILES: Cc1cccc(Nc2ccccc2C(=O)O)c1C

fluorescence lifetime (in CN(C)C=O): 0.92 ns | fluorescence lifetime (in ClC(Cl)Cl): 1.09 ns
SMILES: CCCCCCOc1ccc(N(c2ccc(OCCCCCC)cc2)c2ccc(-c3sc(-c4ccc(N(c5ccc(OCCCCCC)cc5)c5ccc(OCCCCCC)cc5)cc4)c4nc(CC)c(CC)nc34)cc2)cc1

fluorescence lifetime (in C1COCCO1): 13.3 ns | fluorescence lifetime (in CCOC(C)=O): 9 ns
SMILES: c1ccc(Nc2nc(Nc3ccccc3)nc(Nc3ccc4cc5ccccc5cc4c3)n2)cc1

The next lines start with the compound.

SMILES: CCOC(=O)CCCCCn1c2ccc(N)cc2c(=O)c2cc(N)ccc21
fluorescence lifetime (in O): 11.5 ns

SMILES: CCCCn1c2ccc(C#Cc3cccs3)cc2c2c1c1c3ccc(C#Cc4cccs4)cc3n(CCCC)c1c1c3ccc(C#Cc4cccs4)cc3n(CCCC)c21
fluorescence lifetime (in C1CCOC1): 3.8 ns

SMILES: c1ccc(-c2cc(-c3ccccc3)cc(-c3ccc4c(c3)C3(c5cc(-c6cc(-c7ccccc7)cc(-c7ccccc7)c6)ccc5-4)c4ccccc4-c4c3c3c5ccccc5ccc3c3ccccc43)c2)cc1
fluorescence lifetime (in Cc1ccccc1): 3.07 ns

SMILES: CCCCCCCCOC(=O)c1ccc(-c2cc3ccc4cc(-c5ccc(C(=O)OCCCCCCCC)cc5)cc5ccc(c2)c3c45)cc1
fluorescence lifetime (in Cc1ccccc1): 49 ns

SMILES: N#Cc1cccc2cc[nH]c12
fluorescence lifetime (in C1CCOC1): 6.9 ns | fluorescence lifetime (in C1COCCO1): 7.5 ns | fluorescence lifetime (in CC#N): 8 ns | fluorescence lifetime (in CC(C)O): 9 ns | fluorescence lifetime (in CCO): 8.7 ns | fluorescence lifetime (in CO): 8.2 ns | fluorescence lifetime (in CS(C)=O): 14.5 ns | fluorescence lifetime (in NC=O): 15.7 ns | fluorescence lifetime (in O): 2 ns | fluorescence lifetime (in OCC(F)(F)F): 1.2 ns | fluorescence lifetime (in [2H]O[2H]): 2.3 ns

SMILES: CCCCCCN1C(=O)c2cccc3cc(/N=C\c4cn(C)c5ccccc45)cc(c23)C1=O
fluorescence lifetime (in ClC(Cl)Cl): 11.4 ns

SMILES: COc1ccc(C2=C3C(C)=CC(C=Cc4ccc(C(=O)OC5C[C@H]6CCC5(C)C6(C)C)cc4)=[N+]3[B-](F)(F)n3c(/C=C/c4ccc(C(=O)OC5CC6CCC5(C)C6(C)C)cc4)cc(C)c32)cc1 (some centres undefined)
fluorescence lifetime (in Cc1ccccc1): 2.6 ns

SMILES: Cc1ccc2c(c1)C1(c3ccccc3-c3ccccc31)c1cc(C)ccc1N2c1ccc(-c2ncccn2)cc1
fluorescence lifetime (in O=P(c1ccccc1)(c1ccccc1)c1ccc2oc3ccc(P(=O)(c4ccccc4)c4ccccc4)cc3c2c1): 13 ns

SMILES: O=Cc1ccc(C2=C3C=c4c(oc5ccccc45)=[N+]3[B-](F)(F)n3c2cc2c4ccccc4oc23)cc1
fluorescence lifetime (in C1CCCCC1): 2.47 ns | fluorescence lifetime (in C1CCOC1): 2.09 ns | fluorescence lifetime (in CC#N): 2.38 ns | fluorescence lifetime (in CCOC(C)=O): 2.12 ns | fluorescence lifetime (in CN(C)C=O): 2.3 ns | fluorescence lifetime (in CO): 2.73 ns | fluorescence lifetime (in Cc1ccccc1): 2.44 ns | fluorescence lifetime (in ClCCl): 2.49 ns

SMILES: Cc1cc(-c2ccccc2)nc2c1ccc1nc(-c3ccccc3)cn12
fluorescence lifetime (in CC#N): 6.97 ns | fluorescence lifetime (in CCCCOC(C)=O): 6.04 ns | fluorescence lifetime (in CCOC(C)=O): 5.98 ns | fluorescence lifetime (in CO): 5.18 ns | fluorescence lifetime (in c1ccccc1): 5.55 ns

SMILES: COc1ccc(C#Cc2ccc(-c3nn[nH]n3)cc2)cc1OC
fluorescence lifetime (in C1CCOC1): 0.94 ns | fluorescence lifetime (in C1COCCO1): 0.81 ns | fluorescence lifetime (in CC#N): 0.46 ns | fluorescence lifetime (in CCOC(C)=O): 0.86 ns | fluorescence lifetime (in CS(C)=O): 0.66 ns | fluorescence lifetime (in Cc1ccccc1): 0.73 ns

SMILES: COc1ccc(C2=Cc3ccc4ccccc4[n+]3[B-](F)(F)O2)cc1
fluorescence lifetime (in ClC(Cl)Cl): 2.3 ns

SMILES: COC(=O)/C(C#N)=c1/cc/c(=c2/cc/c(=C(\C#N)C(=O)OC)s2)s1
fluorescence lifetime (in Cc1ccccc1): 0.016 ns

SMILES: c1ccc(-c2ccc(-c3ccc(N(c4ccccc4)c4ccccc4)cc3)c3nsnc23)cc1
fluorescence lifetime (in C1CCOC1): 7.95 ns | fluorescence lifetime (in CC(C)=O): 3.58 ns | fluorescence lifetime (in CCCCCC): 6.77 ns | fluorescence lifetime (in CCOCC): 7.46 ns

SMILES: CCOC(=O)CCCCCn1c2ccc([N+](=O)[O-])cc2c(=O)c2cc3c(cc21)c(=O)c1cc([N+](=O)[O-])ccc1n3CCCCCC(=O)OCC
fluorescence lifetime (in ClCCl): 5.1 ns

SMILES: Cc1ccc(-n2c(C)ccc2C)cc1
fluorescence lifetime (in CC#N): 4.4 ns

SMILES: C(#Cc1ccccc1)C(C#Cc1ccccc1)=Cc1ccc(C=C(C#Cc2ccccc2)C#Cc2ccccc2)cc1
fluorescence lifetime (in ClC(Cl)Cl): 1.2 ns

SMILES: Cc1ccc(C2=C3C=CC(C#Cc4ccccc4)=[N+]3[B-](F)(F)n3c(Cl)ccc32)cc1
fluorescence lifetime (in C1CCCCC1): 4.31 ns | fluorescence lifetime (in C1CCOC1): 4.24 ns | fluorescence lifetime (in C1COCCO1): 4.43 ns | fluorescence lifetime (in CCOC(C)=O): 4.34 ns | fluorescence lifetime (in CO): 4.25 ns | fluorescence lifetime (in Cc1ccccc1): 4.45 ns | fluorescence lifetime (in ClC(Cl)Cl): 4.73 ns
